Each compound was assayed against human-KAT6A (MYST domain 507-778 aa) (Homo sapiens (Human), UniProt Q92794) (assay: KAT6A biochemical assay (TR-FRET)). Conditions: @ 1 μM; reported where IC50 could not be determined; read-out: Percent inhibition at specific concentration (KAT6A).
Sequence of human-KAT6A (MYST domain 507-778 aa) (Q92794 507-778): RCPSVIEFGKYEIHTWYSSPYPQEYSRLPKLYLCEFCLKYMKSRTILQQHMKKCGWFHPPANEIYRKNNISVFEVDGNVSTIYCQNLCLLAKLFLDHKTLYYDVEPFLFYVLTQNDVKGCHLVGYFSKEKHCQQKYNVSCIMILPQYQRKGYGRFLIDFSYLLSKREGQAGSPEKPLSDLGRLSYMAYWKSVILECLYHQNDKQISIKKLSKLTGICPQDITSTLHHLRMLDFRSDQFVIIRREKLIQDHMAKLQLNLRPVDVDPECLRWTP
How it was run: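 KAT6A MYST domain preincubated with compound 30 min at 25° C, then reacted 60 min at 25° C with 200 nM biotin-H4 peptide and 600 nM acetyl-CoA (final). Europium anti-acetyl-lysine/streptavidin-APC TR-FRET read (Ex 340, Em 615/665 nm); % inhibition from 665/615 ratio, IC50 by sigmoidal fit.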
Work on COc1ccc(C(C)(C)C)cc1S(=O)(=O)NC(=O)c1ccc(Cn2cccn2)c(=O)n1C [Compound 278, 5-((1H-pyrazol-1-yl)methyl)-N-((5-(tert-butyl)-2-methoxyphenyl)sulfonyl)-1-methyl-6-oxo-1,6-dihydropyridine-2-carboxamide] yielded an inhibition at 1 µM of 25%.

Same assay, conditions: TR-FRET; histone H4 peptide 200 nM, acetyl-CoA 600 nM; read-out: KAT6A IC50
In the case of COc1ccc(C(C)(C)CO)cc1[S@@](=N)(=O)NC(=O)c1ccc(Cn2cccn2)c(OC)n1 [Compound 290b, (S)-5-((1H-pyrazol-1-yl)methyl)-N-(5-(1-hydroxy-2-methylpropan-2-yl)-2-methoxyphenylsulfonimidoyl)-6-methoxypicolinamide], the IC50 is reported as 33 nM. CCc1ccc(OC)c(S(=O)(=O)NC(=O)c2ccc(Cn3cccn3)c(OC)c2)c1OC [Compound 66, 4-((1H-pyrazol-1-yl)methyl)-N-((3-ethyl-2,6-dimethoxyphenyl)sulfonyl)-3-methoxybenzamide] showed an IC50 of 13 nM. For COc1cc(C(=O)NS(=O)(=O)c2c(OC)ccc(Cl)c2OC)ccc1Cn1cccn1 [Compound 46, 4-((1H-pyrazol-1-yl)methyl)-N-((3-chloro-2,6-dimethoxyphenyl)sulfonyl)-3-methoxybenzamide], the IC50 was 12 nM. COc1cc(C(=O)NS(=O)(=O)c2c(OC)cccc2OC2CC2)ccc1Cn1cccn1 [Compound 52, 4-((1H-pyrazol-1-yl)methyl)-N-((2-cyclopropoxy-6-methoxyphenyl)sulfonyl)-3-methoxybenzamide] gave an IC50 of 9 nM. In the case of CCc1nc(C(=O)NS(=O)(=O)c2c(OC)cccc2OC)ccc1Cn1cccn1 [Compound 265, 5-((1H-Pyrazol-1-yl)methyl)-N-((2,6-dimethoxyphenyl)sulfonyl)-6-ethylpicolinamide], the IC50 is reported as 14 nM. Compound COc1cc(Cn2cccn2)ccc1C(=O)NS(=O)(=O)c1ccc(C(C)(C)C)cc1OC [Compound 11, 4-((1H-pyrazol-1-yl)methyl)-N-((4-(tert-butyl)-2-methoxyphenyl)sulfonyl)-2-methoxybenzamide] has an IC50 of 500 nM. Work on COc1cccc(OCC2CC2)c1S(=O)(=O)NC(=O)c1ccc(Cn2cccn2)c(OC)n1 [Compound 245, 5-((1H-pyrazol-1-yl)methyl)-N-((2-(cyclopropylmethoxy)-6-methoxyphenyl)sulfonyl)-6-methoxypicolinamide] yielded an IC50 of 12 nM. COc1ccc(C)c(OC)c1[S@](=N)(=O)NC(=O)c1ccc(Cn2cccn2)c(OC)n1 [Compound 301a, (R)-5-((1H-pyrazol-1-yl)methyl)-N-(2,6-dimethoxy-3-methylphenylsulfonimidoyl)-6-methoxypicolinamide] was tested, and the IC50 was 313 nM. COc1ccc(S(=N)(=O)NC(=O)c2ccc(Cn3cccn3)c(OC)n2)c(OC)c1 (centres unmarked) [Compound 262, 5-((1H-pyrazol-1-yl)methyl)-N-(2,4-dimethoxyphenylsulfonimidoyl)-6-methoxypicolinamide] showed an IC50 of 115 nM. Compound COc1cccc(OC)c1S(=O)(=O)NC(=O)c1ccc(Cn2cccn2)c(C(F)F)n1 [Compound 231, 5-((1H-pyrazol-1-yl)methyl)-6-(difluoromethyl)-N-((2,6-dimethoxyphenyl)sulfonyl)picolinamide] has an IC50 of 14 nM. In the case of COc1cc(C(=O)NS(=O)(=O)c2ccc(C(C)(C)C)cc2OC)ccc1Cn1cccn1 [Compound 8, 4-((1H-pyrazol-1-yl)methyl)-N-((4-(tert-butyl)-2-methoxyphenyl)sulfonyl)-3-methoxybenzamide], the IC50 is reported as 17 nM. With COc1ccc(C(C)(C)O)cc1S(=N)(=O)NC(=O)c1ccc(Cn2cccn2)c(OC)n1 (racemic) [Compound 297, 5-((1H-pyrazol-1-yl)methyl)-N-(5-(2-hydroxypropan-2-yl)-2-methoxyphenylsulfonimidoyl)-6-methoxypicolinamide] the IC50 was 39 nM. With COc1ccc(C(C)(C)C)cc1S(=O)(=O)NC(=O)c1ccc(Cn2cccn2)c(C2CC2)c1 [Compound 17, 4-((1H-pyrazol-1-yl)methyl)-N-((5-(tert-butyl)-2-methoxyphenyl)sulfonyl)-3-cyclopropylbenzamide] the IC50 was 20 nM. In the case of COc1cc(OC)c(S(=O)(=O)NC(=O)c2ccc(Cn3cccn3)c(OC)n2)cc1F [Compound 244, 5-((1H-pyrazol-1-yl)methyl)-N-((5-fluoro-2,4-dimethoxyphenyl)sulfonyl)-6-methoxypicolinamide], the IC50 is reported as 14 nM. COc1cc(OC)c([S@@](=N)(=O)NC(=O)c2ccc(Cn3cccn3)c(OC)n2)c(OC)c1 [Compound 296b, (S)-5-((1H-pyrazol-1-yl)methyl)-6-methoxy-N-(2,4,6-trimethoxyphenylsulfonimidoyl)picolinamide] gave an IC50 of 677 nM. COc1cccc(OC)c1S(=O)(=O)NC(=O)c1ccc(Cn2cccn2)c(C(F)(F)F)n1 [Compound 236, 5-((1H-pyrazol-1-yl)methyl)-N-((2,6-dimethoxyphenyl)sulfonyl)-6-(trifluoromethyl)picolinamide] gave an IC50 of 4 nM. For COc1cccc(OC)c1[S@](=N)(=O)NC(=O)c1ccc(Cn2cccn2)c(OC(F)(F)F)c1 [Compound 300a, (R)-4-((1H-pyrazol-1-yl)methyl)-N-(2,6-dimethoxyphenylsulfonimidoyl)-3-(trifluoromethoxy)benzamide], the IC50 was 125 nM. With COc1cccc(OC)c1S(=O)(=O)NC(=O)c1ccc(Cn2cccn2)c(F)c1 [Compound 12, 4-((1H-pyrazol-1-yl)methyl)-N-((2,6-dimethoxyphenyl)sulfonyl)-3-fluorobenzamide] the IC50 was 48 nM. For COc1ccc(C(C)(C)C)cc1S(=O)(=O)NC(=O)c1ccc(Cn2cccn2)c(F)c1 [Compound 13, 4-((1H-pyrazol-1-yl)methyl)-N-((5-(tert-butyl)-2-methoxyphenyl)sulfonyl)-3-fluorobenzamide], the IC50 was 47 nM. COc1cccc(OC(F)F)c1S(=O)(=O)NC(=O)c1ccc(Cn2cccn2)c(OC)n1 [Compound 220, 5-((1H-pyrazol-1-yl)methyl)-N-((2-(difluoromethoxy)-6-methoxyphenyl)sulfonyl)-6-methoxypicolinamide] was tested, and the IC50 was 7 nM. COc1ccc(C(C)(O)C2CC2)cc1S(=O)(=O)NC(=O)c1ccc(Cn2cccn2)c(OC)n1 (centres unmarked) [Compound 240, 5-((1H-pyrazol-1-yl)methyl)-N-((5-(1-cyclopropyl-1-hydroxyethyl)-2-methoxyphenyl)sulfonyl)-6-methoxypicolinamide] showed an IC50 of 11 nM. Compound COc1cc(OC)c([S@](=N)(=O)NC(=O)c2ccc(Cn3cccn3)c(OC)c2)c(OC)c1 [Compound 299a, (R)-4-((1H-pyrazol-1-yl)methyl)-3-methoxy-N-(2,4,6-trimethoxyphenylsulfonimidoyl)benzamide] has an IC50 of 15 nM. CCOc1cccc(OC)c1S(=O)(=O)NC(=O)c1ccc(Cn2cccn2)c(OC)n1 [Compound 218, 5-((1H-pyrazol-1-yl)methyl)-N-((2-ethoxy-6-methoxyphenyl)sulfonyl)-6-methoxypicolinamide] gave an IC50 of 8 nM. Compound CCc1c(OC)cc(OC)c(S(=O)(=O)NC(=O)c2ccc(Cn3cccn3)c(OC)n2)c1OC [Compound 268, 5-((1H-Pyrazol-1-yl)methyl)-N-((3-ethyl-2,4,6-trimethoxyphenyl)sulfonyl)-6-methoxypicolinamide] has an IC50 of 16 nM. COc1cccc(OC(C)C)c1S(=O)(=O)NC(=O)c1ccc(Cn2cccn2)c(OC)n1 [Compound 221, 5-((1H-pyrazol-1-yl)methyl)-N-((2-isopropoxy-6-methoxyphenyl)sulfonyl)-6-methoxypicolinamide] showed an IC50 of 5 nM.
